Test results: patent publication US12201624B2, “Compositions comprising mixtures of compounds and uses thereof” (Prostasis, LLC, priority 2021, dated 2025)

Test: Plasma and brain levels of the components by LC-MS/MS after 10 days of HFD containing the exemplary composition
Text: In all studies described below, animals on the test diet received either a high fat diet (HFD) or a low-fat diet (LFD) ad libitum, with the diet further containing the components listed in Table 5.
Adult female wild-type C57/BL6 (Envigo) were used for the experiments. The animals were group housed in plastic cages (3-5 animals/cage) and had access to food and water ad libitum. Experiments were approved by the Institutional Animal Care and Use Committee of Brains On-Line LLC, South San Francisco, CA.
Mice were fed a HFD containing a composition comprising nicotinic acid, berberine, silibinin, lipoic acid and taurine (see Table 5) for 10 days. Subjects were euthanized, and plasma and brain samples were collected after 10 days feeding with a HFD containing the composition. The blood was collected into a vial already containing EDTA anticoagulant. The blood was centrifuged at 2500×g at 4° C. for 10 minutes. Supernatants were stored as plasma samples at −80° C. Immediately following blood collection, whole brains were rapidly extracted, placed into a pre-weighed tube, and weighed. Samples were snap frozen with liquid nitrogen.
Levels of nicotinic acid, berberine, silibinin (active form of Siliphos®), lipoic acid and taurine were quantified in plasma and brain samples by LC-MS/MS.

[1] = female, C57/BL6, mouse, in vivo
[2] = female, C57/BL6, mouse, in vivo, 10 days

| SMILES | Cumulative Brain (brain after 10 days administration in HFD, mice) | concentration at 10 days [1] | Basal Plasma (basal plasma level, mice, LC-MS/MS) | Cumulative Brain [2] | Basal Brain (mouse, in vivo) | Basal Brain [1] | Basal Plasma (mouse, in vivo) | Cumulative Plasma [2] |
| --- | --- | --- | --- | --- | --- | --- | --- | --- |
| COc1ccc2cc3[n+](cc2c1OC)CCc1cc2c(cc1-3)OCO2 [Berberine] | 265 pmol/g | 20.5 nM | – | – | – | – | – | – |
| O=C(O)CCCCC1CCSS1 (stereo not drawn) [Lipoic acid] | – | 68.2 nM | <LLOQ | 21 pmol/g | <LLOQ | – | – | – |
| O=C(O)c1cccnc1 [Nicotinic acid] | – | 1360 nM | – | 12600 pmol/g | – | 9.4 nmol/g | <LLOQ | – |
| COc1cc(C2Oc3cc([C@H]4Oc5cc(O)cc(O)c5C(=O)[C@@H]4O)ccc3OC2CO)ccc1O (stereo partly drawn) [Silibinin] | – | – | – | 12.9 pmol/g | – | – | – | 21 nM |
